# Laboratory results published in ChEMBL document CHEMBL4673372, “1,2,3-triazole-thiazole hybrids: Synthesis, in vitro antimicrobial activity and antibiofilm studies” (Bioorg Med Chem Lett, 2021).
# Columns and labels:
# Bacillus subtilis [1] = experiment: Bactericidal activity against Bacillus subtilis MTCC 121; assay type: functional
# Pichia sporocuriosa [2] = experiment: Fungicidal activity against Issatchenkia hanoiensis MTCC 4755; assay type: functional
# Candida albicans [3] = experiment: Antifungal activity against Candida albicans MTCC 183; assay type: functional
# Raoultella planticola [4] = experiment: Bactericidal activity against Klebsiella planticola MTCC 530; assay type: functional
# Micrococcus luteus [5] = experiment: Bactericidal activity against Micrococcus luteus MTCC 2470; assay type: functional
# Staphylococcus aureus [6] = experiment: Bactericidal activity against Staphylococcus aureus MTCC 96; assay type: functional
# Escherichia coli [7] = experiment: Antibacterial activity against Escherichia coli MTCC 739 assessed as inhibition of bacterial growth by microtiter broth dilution method; assay type: functional
# Candida parapsilosis = experiment: Antifungal activity against Candida parapsilosis MTCC 1745; assay type: functional; conditions: Lodderomyces parapsilosis
# Raoultella planticola [8] = experiment: Inhibition of biofilm formation in Klebsiella planticola MTCC 530 incubated for 24 hrs by crystal violet staining based microtiter plate method; assay type: functional, organism-based
# Bacillus subtilis [9] = experiment: Inhibition of biofilm formation in Bacillus subtilis MTCC 121 incubated for 24 hrs by crystal violet staining based microtiter plate method; assay type: functional, organism-based
# Candida albicans [10] = experiment: Inhibition of biofilm formation in Candida albicans MTCC 3017 incubated for 24 hrs by crystal violet staining based microtiter plate method; assay type: functional, organism-based
# Candida albicans [11] = experiment: Fungicidal activity against Candida albicans MTCC 854; assay type: functional
# THP-1 [12] = experiment: Cytotoxicity against human THP-1 cells assessed as cell damage at 200 uM by LDH assay; assay type: cell-based; conditions: thp-1, 200 µM
# Candida albicans [13] = experiment: Antifungal activity against Candida albicans MTCC 4748; assay type: functional
# Pseudomonas aeruginosa [14] = experiment: Inhibition of biofilm formation in Pseudomonas aeruginosa MTCC 2453 incubated for 24 hrs by crystal violet staining based microtiter plate method; assay type: functional, organism-based
# Candida albicans [15] = experiment: Antifungal activity against Candida albicans MTCC 3018; assay type: functional
# Staphylococcus aureus [16] = experiment: Inhibition of biofilm formation in Staphylococcus aureus […] incubated for 24 hrs by crystal violet staining based microtiter plate method; assay type: functional, organism-based
# [17] = Cytotoxicity against human THP-1 cells; assay type: cell-based
# Bacillus subtilis [18] = experiment: Antibacterial activity against Bacillus subtilis MTCC 121 assessed as inhibition of bacterial growth by microtiter broth dilution method; assay type: functional
# Candida albicans [19] = experiment: Fungicidal activity against Candida albicans MTCC 183; assay type: functional
# THP-1 [20] = experiment: Cytotoxicity against human THP-1 cells assessed as reduction in cell viability at 200 uM by MTT assay; assay type: cell-based; conditions: thp-1, 200 µM
# Candida albicans [21] = experiment: Antifungal activity against Candida albicans MTCC 1637; assay type: functional
# Escherichia coli [22] = experiment: Bactericidal activity against Escherichia coli MTCC 739; assay type: functional
# Candida albicans [23] = experiment: Antifungal activity against Candida albicans MTCC 854; assay type: functional
# Micrococcus luteus [24] = experiment: Inhibition of biofilm formation in Micrococcus luteus MTCC 2470 incubated for 24 hrs by crystal violet staining based microtiter plate method; assay type: functional, organism-based
# Candida albicans [25] = experiment: Antifungal activity against Candida albicans MTCC 227; assay type: functional
# Pseudomonas aeruginosa [26] = experiment: Antibacterial activity against Pseudomonas aeruginosa MTCC 2453 assessed as inhibition of bacterial growth by microtiter broth dilution method; assay type: functional
# Staphylococcus aureus [27] = experiment: Antibacterial activity against Staphylococcus aureus MTCC 96 assessed as inhibition of bacterial growth by microtiter broth dilution method; assay type: functional
# [Candida] aaseri = Antifungal activity against Candida aaseri MTCC 1962; assay type: functional; conditions: Yamadazyma aaseri
# Pseudomonas aeruginosa [28] = experiment: Bactericidal activity against Pseudomonas aeruginosa MTCC 2453; assay type: functional
# Micrococcus luteus [29] = experiment: Antibacterial activity against Micrococcus luteus MTCC 2470 assessed as inhibition of bacterial growth by microtiter broth dilution method; assay type: functional
# Pichia sporocuriosa [30] = experiment: Antifungal activity against Issatchenkia hanoiensis MTCC 4755; assay type: functional
# Raoultella planticola [31] = experiment: Antibacterial activity against Klebsiella planticola MTCC 530 assessed as inhibition of bacterial growth by microtiter broth dilution method; assay type: functional
# Escherichia coli [32] = experiment: Inhibition of biofilm formation in Escherichia coli MTCC 739 incubated for 24 hrs by crystal violet staining based microtiter plate method; assay type: functional, organism-based
# Candida albicans [33] = experiment: Antifungal activity against Candida albicans MTCC 3958; assay type: functional
# Pichia kudriavzevii = experiment: Antifungal activity against Candida krusei MTCC 3020; assay type: functional
# Staphylococcus aureus [34] = experiment: Antibacterial activity against Staphylococcus aureus MLS16 MTCC 2940 assessed as inhibition of bacterial growth by microtiter broth dilution method; assay type: functional
# [35] = Selectivity index, ratio of CC50 for human THP-1 cells to MIC for Staphylococcus aureus MTCC 96; assay type: toxicity
# Staphylococcus aureus [36] = experiment: Inhibition of biofilm formation in Staphylococcus aureus MLS16 MTCC 2940 incubated for 24 hrs by crystal violet staining based microtiter plate method; assay type: functional, organism-based
# Nakaseomyces glabratus = experiment: Antifungal activity against Candida glabrata MTCC 3019; assay type: functional
# Staphylococcus aureus [37] = experiment: Bactericidal activity against Staphylococcus aureus MLS16 MTCC 2940; assay type: functional
# [38] = Klebsiella planticola, MTCC 530, 24 h, read-out: IC50
# [39] = Bacillus subtilis, MTCC 121, 24 h, read-out: IC50
# [40] = Candida albicans, MTCC 3017, 24 h, read-out: IC50
# [41] = Pseudomonas aeruginosa, MTCC 2453, 24 h, read-out: IC50
# [42] = Micrococcus luteus, MTCC 2470, 24 h, read-out: IC50
# [43] = Escherichia coli, MTCC 739, 24 h, read-out: IC50
Compound,MBC (Bacillus subtilis [1]),MIC (Candida albicans [3]),MBC (Raoultella planticola [4]),MBC (Micrococcus luteus [5]),MBC (Staphylococcus aureus [6]),MIC (Escherichia coli [7]),MIC (Candida parapsilosis),IC50 (Raoultella planticola [8]; [38]),IC50 (Bacillus subtilis [9]; [39]),MIC (Candida albicans [13]),IC50 (Pseudomonas aeruginosa [14]; [41]),MIC (Candida albicans [15]),MIC (Bacillus subtilis [18]),MFC (Candida albicans [19]),MIC (Candida albicans [21]),MIC (Pseudomonas aeruginosa [26]),MIC (Staphylococcus aureus [27]),MIC (Micrococcus luteus [29]),MIC (Raoultella planticola [31]),MIC (Staphylococcus aureus [34]),also measured
COc1ccc(-n2cc(COc3ccc(/C=N/Nc4nc(-c5cc6c(ccc7ccccc76)oc5=O)cs4)cc3)nn2)cc1,12.9 µM,13 µM,12.9 µM,25.9 µM,21.4 µM,6.5 µM,> 208 µM,59.7 µM,37.5 µM,> 208 µM,30.4 µM,> 208 µM,6.5 µM,51.9 µM,> 208 µM,12.9 µM,6.5 µM,12.9 µM,3.1 µM,> 208 µM,"MFC (Pichia sporocuriosa [2]): 13 µM; IC50 (Candida albicans [10]; [40]): 45.6 µM; MFC (Candida albicans [11]): 13 µM; Activity (THP-1 [12]): Toxic; IC50 (Staphylococcus aureus [16]; Staphylococcus aureus, MTCC 92, 24 h, read-out: IC50): 30.1 µM; CC50 [17]: 33.3 µM; Activity (THP-1 [20]): Toxic; MBC (Escherichia coli [22]): 25.9 µM; MIC (Candida albicans [23]): 6.5 µM; IC50 (Micrococcus luteus [24]; [42]): 40.2 µM; MIC (Candida albicans [25]): > 208 µM; MIC ([Candida] aaseri): > 208 µM; MBC (Pseudomonas aeruginosa [28]): 51.9 µM; MIC (Pichia sporocuriosa [30]): 6.5 µM; IC50 (Escherichia coli [32]; [43]): 127 µM; MIC (Candida albicans [33]): > 208 µM; MIC (Pichia kudriavzevii): > 208 µM; selectivity ratio [35]: 5.12; IC50 (Staphylococcus aureus [36]; Staphylococcus aureus, MLS16 MTCC 2940, 24 h, read-out: IC50): 51.1 µM; MIC (Nakaseomyces glabratus): > 208 µM"
COc1ccc(-n2cc(COc3ccc(/C=N/Nc4nc(-c5cc6ccccc6oc5=O)cs4)cc3)nn2)cc1,14.1 µM,14.2 µM,28.3 µM,14.1 µM,28.3 µM,> 227 µM,> 227 µM,35.7 µM,6.6 µM,> 227 µM,19.5 µM,> 227 µM,7 µM,56.7 µM,> 227 µM,14.1 µM,14.1 µM,7 µM,14.1 µM,> 227 µM,MFC (Pichia sporocuriosa [2]): 14.2 µM; IC50 (Candida albicans [10]; [40]): 63.5 µM; MFC (Candida albicans [11]): 14.2 µM; Activity (THP-1 [12]): Toxic; IC50 (Staphylococcus aureus [16]): Not Active; CC50 [17]: 36.3 µM; Activity (THP-1 [20]): Toxic; MIC (Candida albicans [23]): 7.1 µM; IC50 (Micrococcus luteus [24]): Not Active; MIC (Candida albicans [25]): > 227 µM; MIC ([Candida] aaseri): > 227 µM; MBC (Pseudomonas aeruginosa [28]): 56.6 µM; MIC (Pichia sporocuriosa [30]): 7.1 µM; IC50 (Escherichia coli [32]; [43]): 31.3 µM; MIC (Candida albicans [33]): > 227 µM; MIC (Pichia kudriavzevii): > 227 µM; selectivity ratio [35]: 2.58; IC50 (Staphylococcus aureus [36]): Not Active; MIC (Nakaseomyces glabratus): > 227 µM
COc1ccc(-n2cc(COc3ccc(/C=N/Nc4nc(-c5cc6cc([N+](=O)[O-])cc([N+](=O)[O-])c6oc5=O)cs4)cc3)nn2)cc1,,6.1 µM,,,,> 195 µM,> 195 µM,,,> 195 µM,,> 195 µM,> 195 µM,12.2 µM,> 195 µM,> 195 µM,> 195 µM,> 195 µM,> 195 µM,> 195 µM,MFC (Candida albicans [3]): 12.2 µM; IC50 (Raoultella planticola [8]): Not Active; IC50 (Bacillus subtilis [9]): Not Active; IC50 (Candida albicans [10]): Not Active; IC50 (Pseudomonas aeruginosa [14]): Not Active; IC50 (Staphylococcus aureus [16]): Not Active; MIC (Candida albicans [23]): > 195 µM; IC50 (Micrococcus luteus [24]): Not Active; MIC (Candida albicans [25]): > 195 µM; MIC ([Candida] aaseri): > 195 µM; MIC (Pichia sporocuriosa [30]): > 195 µM; IC50 (Escherichia coli [32]): Not Active; MIC (Candida albicans [33]): > 195 µM; MIC (Pichia kudriavzevii): > 195 µM; IC50 (Staphylococcus aureus [36]): Not Active; MIC (Nakaseomyces glabratus): > 195 µM
COc1ccc(-n2cc(COc3ccc(/C=N/Nc4nc(-c5cc6cc(Br)cc(Br)c6oc5=O)cs4)cc3)nn2)cc1,11 µM,,,11 µM,,5.5 µM,,,42.6 µM,,110 µM,,5.5 µM,,,> 176 µM,> 176 µM,5.5 µM,> 176 µM,> 176 µM,IC50 (Raoultella planticola [8]): Not Active; IC50 (Candida albicans [10]): Not Active; IC50 (Staphylococcus aureus [16]): Not Active; MBC (Escherichia coli [22]): 11 µM; IC50 (Micrococcus luteus [24]; [42]): 45.1 µM; IC50 (Escherichia coli [32]): Not Active; IC50 (Staphylococcus aureus [36]): Not Active
O=C(O)c1cn(C2CC2)c2cc(N3CCNCC3)c(F)cc2c1=O [CIPROFLOXACIN],2.7 µM,,2.7 µM,2.7 µM,2.7 µM,2.7 µM,,0.8 µM,,,0.5 µM,,2.7 µM,,,2.7 µM,2.7 µM,2.7 µM,2.7 µM,2.7 µM,MBC (Staphylococcus aureus [37]): 2.7 µM; IC50 (Candida albicans [10]): Not Active; MBC (Escherichia coli [22]): 2.7 µM; MBC (Pseudomonas aeruginosa [28]): 2.7 µM; IC50 (Escherichia coli [32]; [43]): 0.6 µM
